Results published in PubChem BioAssay AID1259407 (Chemical Carcinogenesis Research Information System (CCRIS), 2018).
Calls of active or inactive are those of the source. No rule for the calls is given here.

Test system: CCRIS mutagenicity, Ames/micronucleus/aberration tests
Assay: CCRIS mutagenicity studies
From the text: The CCRIS database contains chemical records with carcinogenicity, mutagenicity, tumor promotion, and tumor inhibition test results. It was developed by the National Cancer Institute (NCI). Data are derived from studies cited in primary journals, current awareness tools, NCI reports, and other sources. Test results have been reviewed by experts in carcinogenesis and mutagenesis.
CCRIS provides historical information from the years 1985 - 2011. It is no longer updated.
This is an archive assay for CCRIS mutagenicity studies.

[1] = Test System: AMES SALMONELLA TYPHIMURIUM, Strain/Indicator: TA98, Metabolic Activation: HAMSTER, LIVER, S-9, AROCLOR 1254 (30%), Method: PREINCUBATION
[2] = Test System: AMES SALMONELLA TYPHIMURIUM, Strain/Indicator: TA98, Metabolic Activation: NONE, Method: PREINCUBATION
[3] = Test System: AMES SALMONELLA TYPHIMURIUM, Strain/Indicator: TA98, Metabolic Activation: NONE, Method: STANDARD PLATE
[4] = Test System: AMES SALMONELLA TYPHIMURIUM, Strain/Indicator: TA98, Metabolic Activation: RAT, LIVER, S-9, AROCLOR 1254 (30%), Method: PREINCUBATION
[5] = Test System: AMES SALMONELLA TYPHIMURIUM, Strain/Indicator: TA100, Metabolic Activation: HAMSTER, LIVER, S-9, AROCLOR 1254 (30%), Method: PREINCUBATION
[6] = Test System: AMES SALMONELLA TYPHIMURIUM, Strain/Indicator: TA100, Metabolic Activation: NONE, Method: PREINCUBATION
[7] = Test System: AMES SALMONELLA TYPHIMURIUM, Strain/Indicator: TA100, Metabolic Activation: NONE, Method: STANDARD PLATE
[8] = Test System: AMES SALMONELLA TYPHIMURIUM, Strain/Indicator: TA100, Metabolic Activation: RAT, LIVER, S-9, AROCLOR 1254 (30%), Method: PREINCUBATION
[9] = Test System: AMES SALMONELLA TYPHIMURIUM, Strain/Indicator: TA1535, Metabolic Activation: NONE, Method: STANDARD PLATE
[10] = Test System: AMES SALMONELLA TYPHIMURIUM, Strain/Indicator: TA1537, Metabolic Activation: NONE, Method: STANDARD PLATE
[11] = Test System: AMES SALMONELLA TYPHIMURIUM, Strain/Indicator: TA1538, Metabolic Activation: NONE, Method: STANDARD PLATE
[12] = Test System: MOUSE LYMPHOMA, Strain/Indicator: L5178Y (TK+/TK-), Metabolic Activation: NONE, Method: SUSPENSION/PLATE
[13] = Test System: MOUSE LYMPHOMA, Strain/Indicator: L5178Y (TK+/TK-), Metabolic Activation: RAT, LIVER, S-9, AROCLOR 1254, Method: SUSPENSION/PLATE

With `CCN(CC)CCNc1ccc(CO)c2sc3ccccc3c(=O)c12` the mutagenic call [1] was “active; positive”, the mutagenic call [2] was “active; positive” and the mutagenic call [3] was “active; positive”. For the same compound, the mutagenic call [4] was “active; positive”, the mutagenic call (Test System: AMES SALMONELLA TYPHIMURIUM, Strain/Indicator: TA98, Metabolic Activation: RAT, LIVER, S-9, AROCLOR 1254 OR PHENOBARBITOL, Method: STANDARD PLATE) was “active; positive” and the mutagenic call (Test System: AMES SALMONELLA TYPHIMURIUM, Strain/Indicator: TA98, Metabolic Activation: RAT, LIVER, S-9, KC500 OR PHENOBARBITAL, Method: LIQUID SUSPENSION) was “active; positive”. The mutagenic call [5] was “active; positive”, the mutagenic call [6] was “active; positive” and the mutagenic call [7] was “active; positive”. The mutagenic call [8] was “active; positive”, the mutagenic call (Test System: AMES SALMONELLA TYPHIMURIUM, Strain/Indicator: TA100, Metabolic Activation: RAT, LIVER, S-9, AROCLOR 1254 OR PHENOBARBITOL, Method: STANDARD PLATE) was “active; positive” and the mutagenic call (Test System: AMES SALMONELLA TYPHIMURIUM, Strain/Indicator: TA100, Metabolic Activation: RAT, LIVER, S-9, KC500 OR PHENOBARBITAL, Method: LIQUID SUSPENSION) was “active; positive”. For the same compound, the mutagenic call [9] was “inactive; negative”, the mutagenic call (Test System: AMES SALMONELLA TYPHIMURIUM, Strain/Indicator: TA1535, Metabolic Activation: RAT, LIVER, S-9, AROCLOR 1254 OR PHENOBARBITOL, Method: STANDARD PLATE) was “inactive; negative” and the mutagenic call [10] was “active; positive”. The mutagenic call (Test System: AMES SALMONELLA TYPHIMURIUM, Strain/Indicator: TA1537, Metabolic Activation: RAT, LIVER, S-9, AROCLOR 1254 OR PHENOBARBITOL, Method: STANDARD PLATE) was “active; positive”, the mutagenic call (Test System: AMES SALMONELLA TYPHIMURIUM, Strain/Indicator: TA1537, Metabolic Activation: RAT, LIVER, S-9, KC500 OR PHENOBARBITAL, Method: LIQUID SUSPENSION) was “active; positive” and the mutagenic call [11] was “active; positive”. For the same compound, the mutagenic call (Test System: AMES SALMONELLA TYPHIMURIUM, Strain/Indicator: TA1538, Metabolic Activation: RAT, LIVER, S-9, AROCLOR 1254 OR PHENOBARBITOL, Method: STANDARD PLATE) was “active; positive”, the mutagenic call (Test System: AMES SALMONELLA TYPHIMURIUM, Strain/Indicator: TA1538, Metabolic Activation: RAT, LIVER, S-9, KC500 OR PHENOBARBITAL, Method: LIQUID SUSPENSION) was “active; positive” and the mutagenic call (Test System: CHINESE HAMSTER OVARY, Strain/Indicator: CHO-K1-BH4 (HGPRT), Metabolic Activation: NONE, Method: SUSPENSION/PLATE) was “active; positive”. The mutagenic call [12] was “active; positive” and the mutagenic call [13] was “active; positive”.

With `O=C(Cl)C(Cl)(Cl)Cl` the mutagenic call (Test System: AMES SALMONELLA TYPHIMURIUM, Strain/Indicator: TA100, Metabolic Activation: NONE, Method: BAG VAPORIZATION) was “active; positive” and the mutagenic call (Test System: AMES SALMONELLA TYPHIMURIUM, Strain/Indicator: TA100, Metabolic Activation: RAT, LIVER, S-9, AROCLOR 1254, Method: BAG VAPORIZATION) was “active; positive”.

`CN(C)C(=N)N=C(N)N` was tested, and the mutagenic call (End Point: In vivo micronucleus, Test System: Bone marrow erythrocytes, Species: Mouse, Strain/Sex: Swiss albino/Male, Route: Oral) was “inactive; negative”.

`CCC(Cl)[N+](=O)[O-]` (stereo not given) was tested, and the mutagenic call [1] was “active; positive”, the mutagenic call [2] was “active; positive” and the mutagenic call [4] was “active; positive”. The mutagenic call [5] was “active; positive”, the mutagenic call [6] was “active; positive” and the mutagenic call [8] was “active; positive”.

For `Nc1ccc(-c2ccc(-c3ccc(N)cc3)cc2)cc1`, the mutagenic call [11] was “active; positive”, the mutagenic call (Test System: AMES SALMONELLA TYPHIMURIUM, Strain/Indicator: TA1538, Metabolic Activation: RAT, LIVER, S-9, AROCLOR 1254, Method: STANDARD PLATE) was “active; positive” and the mutagenic call (Test System: CHINESE HAMSTER V-79, Strain/Indicator: V-79/6-THIOGUANINE, Metabolic Activation: NONE, Method: SUSPENSION/PLATE) was “active; positive”. The mutagenic call (Test System: CHINESE HAMSTER V-79, Strain/Indicator: V-79/6-THIOGUANINE, Metabolic Activation: RAT, LIVER, S-9, AROCLOR 1254, Method: SUSPENSION/PLATE) was “inactive; negative” and the mutagenic call (Test System: CHINESE HAMSTER V-79, Strain/Indicator: V-79/6-THIOGUANINE, Metabolic Activation: RAT, LIVER, S-9, PHENOBARBITAL AND BETA-NAPHTHOFLAVONE, Method: SUSPENSION/PLATE) was “inactive; negative”.

In the case of `CN(C)CCNC(=O)c1cccc2c1C(=O)c1ccccc1C2=O`, the mutagenic call [10] is reported as “active; positive”.

In the case of `C[C@]12C=CC(=O)C=C1CC[C@@H]1[C@@H]2C(=O)C[C@@]2(C)[C@H]1CC[C@]2(O)C(=O)CO`, the mutagenic call (Test System: AMES SALMONELLA TYPHIMURIUM, Strain/Indicator: TA98, Metabolic Activation: HAMSTER, LIVER, S-9, AROCLOR 1254 (10%), Method: STANDARD PLATE) is reported as “inactive; negative”, the mutagenic call [3] is reported as “inactive; negative” and the mutagenic call (Test System: AMES SALMONELLA TYPHIMURIUM, Strain/Indicator: TA98, Metabolic Activation: RAT, LIVER, S-9, AROCLOR 1254 (10%), Method: STANDARD PLATE) is reported as “inactive; negative”. The mutagenic call (Test System: AMES SALMONELLA TYPHIMURIUM, Strain/Indicator: TA100, Metabolic Activation: HAMSTER, LIVER, S-9, AROCLOR 1254 (10%), Method: STANDARD PLATE) was “inactive; negative”, the mutagenic call [7] was “inactive; negative” and the mutagenic call (Test System: AMES SALMONELLA TYPHIMURIUM, Strain/Indicator: TA100, Metabolic Activation: RAT, LIVER, S-9, AROCLOR 1254 (10%), Method: STANDARD PLATE) was “inactive; negative”. The mutagenic call (Test System: AMES SALMONELLA TYPHIMURIUM, Strain/Indicator: TA1535, Metabolic Activation: HAMSTER, LIVER, S-9, AROCLOR 1254 (10%), Method: STANDARD PLATE) was “inactive; negative”, the mutagenic call [9] was “inactive; negative” and the mutagenic call (Test System: AMES SALMONELLA TYPHIMURIUM, Strain/Indicator: TA1535, Metabolic Activation: RAT, LIVER, S-9, AROCLOR 1254 (10%), Method: STANDARD PLATE) was “inactive; negative”. The mutagenic call (Test System: AMES SALMONELLA TYPHIMURIUM, Strain/Indicator: TA1537, Metabolic Activation: HAMSTER, LIVER, S-9, AROCLOR 1254 (10%), Method: STANDARD PLATE) was “inactive; negative”, the mutagenic call [10] was “inactive; negative” and the mutagenic call (Test System: AMES SALMONELLA TYPHIMURIUM, Strain/Indicator: TA1537, Metabolic Activation: RAT, LIVER, S-9, AROCLOR 1254 (10%), Method: STANDARD PLATE) was “inactive; negative”. The mutagenic call (Test System: AMES SALMONELLA TYPHIMURIUM, Strain/Indicator: TA1538, Metabolic Activation: HAMSTER, LIVER, S-9, AROCLOR 1254 (10%), Method: STANDARD PLATE) was “inactive; negative”, the mutagenic call [11] was “inactive; negative” and the mutagenic call (Test System: AMES SALMONELLA TYPHIMURIUM, Strain/Indicator: TA1538, Metabolic Activation: RAT, LIVER, S-9, AROCLOR 1254 (10%), Method: STANDARD PLATE) was “inactive; negative”. For the same compound, the mutagenic call [12] was “inactive; negative. reevaluation of results: negative” and the mutagenic call [13] was “inactive; negative. reevaluation of results: inconclusive”.
